Drawing on patent publication US20260224588A1, “BENZODIAZEPINONE-DERIVED INHIBITORS OF EGFR AND HER2” (The Research Foundation for the State University of New York, priority 2023, published 2026), this text covers remaining binding for one compound.

Experiment [1] concerns the target AKT3 (Homo sapiens, UniProt Q9Y243). The experiment is described as follows: KINOMEscan. It is filed as binding. The following applies: 1 μM of compound 4; read-out: POC.
The target of experiment [2] is MARK2 (Homo sapiens, UniProt Q7KZI7). The experiment is described as follows: KINOMEscan. It is filed as binding. The following applies: 1 μM of compound 4; read-out: POC.
Sequence of MARK2 (Q7KZI7 whole entry): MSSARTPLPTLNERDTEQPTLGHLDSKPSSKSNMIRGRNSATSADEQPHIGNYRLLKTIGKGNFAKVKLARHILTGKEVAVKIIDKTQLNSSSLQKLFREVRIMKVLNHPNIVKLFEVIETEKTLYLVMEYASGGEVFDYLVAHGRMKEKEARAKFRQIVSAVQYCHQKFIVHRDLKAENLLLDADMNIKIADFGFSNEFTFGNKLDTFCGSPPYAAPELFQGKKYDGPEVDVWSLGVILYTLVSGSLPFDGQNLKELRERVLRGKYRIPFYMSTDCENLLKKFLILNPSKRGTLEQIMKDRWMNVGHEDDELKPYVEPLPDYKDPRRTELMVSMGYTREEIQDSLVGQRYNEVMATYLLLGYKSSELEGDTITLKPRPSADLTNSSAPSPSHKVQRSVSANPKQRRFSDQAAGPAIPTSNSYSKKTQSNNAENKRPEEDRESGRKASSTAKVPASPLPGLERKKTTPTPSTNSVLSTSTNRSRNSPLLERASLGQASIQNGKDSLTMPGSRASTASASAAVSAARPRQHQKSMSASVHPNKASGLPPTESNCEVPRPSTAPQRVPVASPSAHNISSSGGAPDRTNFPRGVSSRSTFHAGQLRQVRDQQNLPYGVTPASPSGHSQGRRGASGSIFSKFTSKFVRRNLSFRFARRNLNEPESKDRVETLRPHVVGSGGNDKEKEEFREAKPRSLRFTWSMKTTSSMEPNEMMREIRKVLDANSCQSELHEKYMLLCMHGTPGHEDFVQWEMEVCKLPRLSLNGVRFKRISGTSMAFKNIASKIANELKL

Sequence of AKT3 (Q9Y243 whole entry): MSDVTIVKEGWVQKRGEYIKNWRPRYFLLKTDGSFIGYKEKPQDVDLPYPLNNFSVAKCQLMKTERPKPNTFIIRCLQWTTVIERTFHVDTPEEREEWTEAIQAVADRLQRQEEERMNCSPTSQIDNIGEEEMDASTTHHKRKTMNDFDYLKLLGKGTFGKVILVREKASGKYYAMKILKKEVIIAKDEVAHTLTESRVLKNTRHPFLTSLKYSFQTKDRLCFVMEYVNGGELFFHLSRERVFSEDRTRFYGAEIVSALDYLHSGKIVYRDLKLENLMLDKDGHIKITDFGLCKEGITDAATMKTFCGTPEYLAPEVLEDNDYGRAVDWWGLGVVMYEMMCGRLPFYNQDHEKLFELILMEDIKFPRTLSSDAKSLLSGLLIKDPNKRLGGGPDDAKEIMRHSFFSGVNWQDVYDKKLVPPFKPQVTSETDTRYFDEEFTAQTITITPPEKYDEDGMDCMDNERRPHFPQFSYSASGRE

On to `C=CC(=O)Nc1ccc(OC)c(Nc2cc(-c3[nH]c(CC)nc3-c3cccc(NC(=O)c4cccc5c4NC(=O)c4ccccc4N5)c3)ccn2)c1` [Compound 4, N-(3-(5-(2-((5-Acrylamido-2-methoxyphenyl)amino)pyridin-4-yl)-2-ethyl-1H-imidazol-4-yl)phenyl)-11-oxo-10,11-dihydro-5H-dibenzo[b,e][1,4]diazepine-9-carboxamide], for which the values for the remaining binding at 1 µM in experiment [1] and in experiment [2] were 100% and 85%, respectively.
